# “Also recorded” adds a separate entry of the source. Like-named read-outs stand apart in the source and are kept apart here.
# How the values were obtained:
# [1] = target: T1, DENV2 NS2B-NS3 K74A mutant (Dengue virus type 2, UniProt P14340, K1549A); assay type: binding
# ZIKV [2] = assay: microbe, parasite or virus in culture; assay type: cell-based; details: HPECs, MOI 2
# in vitro = details: human
# [3] = target: T2, DENV2 NS2B-NS3 I123A mutant (Dengue virus type 2, UniProt P14340, I1598A); assay type: binding
# [4] = target: T3, DENV2 NS2B-NS3 N152A mutant (Dengue virus type 2, UniProt P14340, N1627A); assay type: binding
# WNV [5] = assay: microbe, parasite or virus in culture; details: West Nile virus, A549, 48 h, read-out: EC50, WNV viral reduction
# [6] = target: T3, DENV2 NS2B-NS3 N152A mutant; assay type: biochemical; details: compound 6 μM, protein 150 nM, vs DMSO
# unlinked DENV2 NS2B/NS3 = target: T4, unlinked DENV2 NS2B/NS3 (Dengue virus type 2, UniProt P14340); assay: Protein thermal shift assay (PTSA), unlinked DENV2 NS2B/NS3; assay type: binding; details: unlinked NS2B/NS3 2.5 μM, compound 4.8 μM
# T4 construct: pairs of primers of 1394F and 1440C for NS2B and 1476F and 1660C for NS3; made in house; host or cells: Escherichia coli Rosetta 2(DE3)
# Description: N = 3. […] N = 3. […] PP, ZIKV polyprotein precursor. **, p<0.05.
# DENV2 [7] = assay: microbe, parasite or virus in culture; details: Dengue virus, A549, 48 h, read-out: EC50, DENV2 viral reduction
# YFV [8] = assay: microbe, parasite or virus in culture; details: Yellow fever virus, A549, 48 h, read-out: EC50, YFV viral reduction
# [9] = target: T5, DENV2 NS2B-NS3 V154A mutant (Dengue virus type 2, UniProt P14340, V1629A); assay type: binding
# [10] = target: T6, DENV2 NS2B-CLuc-NS3-119-NLuc-NS3 120-to-NS3_C (N2CN3N) (UniProt P08659+P14340); assay type: biochemical; details: for suppression of NPGB-induced SLC enhancement / effect of compound alone on background SLC: compound 40 μM; for suppression of NPGB-induced SLC enhancement: N2CN3N 150 nM; for effect of compound alone on background SLC: no NPGB, compared to DMSO; for inhibition of NPGB-induced SLC enhancement, concentration series: serial dilution of compound
# T6 construct: pairs of primers of 1394F and 1440C for NS2B and 1476F and 1660C for NS3; made in house; host or cells: Escherichia coli Rosetta 2(DE3)
# [11] = target: T2, DENV2 NS2B-NS3 I123A mutant; assay type: biochemical; details: compound 6 μM, protein 150 nM, vs DMSO
# [12] = target: T1, DENV2 NS2B-NS3 K74A mutant; assay type: biochemical; details: compound 6 μM, protein 150 nM, vs DMSO
# YFV [13] = system: YFV
# DENV2 [14] = details: for DENV2 viral production (titer) relative to DMSO control: compound at 1, 10 and 100 μM, 48 h post-infection
# ZIKV [15] = assay: microbe, parasite or virus in culture; details: Zika virus, A549, 48 h, read-out: EC50, ZIKV viral reduction
# [16] = system: ZIKV NS3 / polyprotein precursor; assay: Western blot of ZIKV NS3 expression and polyprotein processing in infected A549 cells
# [17] = target: T7, unlinked ZIKV NS2B/NS3 protease (Zika virus, UniProt A0A024B7W1); assay: ZIKV unlinked NS2B/NS3 protease inhibition assay; assay type: biochemical; details: protease 150 nM
# T7 construct: The construct contains the NS2B residues 49–95 and the NS3 residues 1–185; made in house; host or cells: E. coli (Rosetta 2(DE3))
# Description: As flavivirus NS3 is highly conserved (Fig 3C), it is possible that the inhibitors identified are broad spectrum flavivirus inhibitors. We therefore investigated whether NSC135618 is effective against other flaviviruses. Because ZIKV treatment currently has the most urgent need, we evaluated the efficacy of the compound on ZIKV. To this end, we first constructed an unlinked NS2B/NS3 heterocomplex of ZIKV in the pET28a vector by engineering a 3C protease cleavage site within the GGGSGGGG linker region between NS2B and NS3. The NS2B/NS3 protease was first expressed as a His-tagged covalently linked single chain protein in E coli. The unlinked ZIKV NS2B/NS3 protease complex was generated by on-column digestion with thrombin and 3C proteases, followed by gel filtration chromatography.
# Fig 7 Inhibition of the ZIKV protease activity, viral titer, protein expression, and viral RNA replication by NSC135618. […] ST, molecular weight (MW) standard. (B) Dose response inhibition of the unlinked ZIKV NS2B-NS3 protease by NSC135618. The NS2b/NS3 protease was at 150 nM. N = 3. (C) Dose-dependent inhibition of ZIKV by NSC135618 in A549 cells. Viral plaque reduction assay was used. N = 3. (D) Immunofluorescence assay (IFA) of inhibition of viral protein expression for ZIKV-infected A549 cells by NSC135618, using pan flavivirus anti-E antibody 4G2. […]
# [18] = target: T5, DENV2 NS2B-NS3 V154A mutant; assay type: biochemical; details: compound 6 μM, protein 150 nM, vs DMSO
# ZIKV [19] = assay: microbe, parasite or virus in culture; assay type: cell-based; details: hNPCs, MOI 2
# WNV [20] = system: WNV
# ZIKV [21] = details: A549 cells
# [22] = target: T8, full-length firefly luciferase (FLuc) (Photinus pyralis, UniProt P08659); assay type: biochemical; details: FLuc 150 nM, compound 30 μM
# T8 construct: or full length Firefly luciferase (150 nM final concentration)
# N2CN3N A125C mutant = target: T9, N2CN3N A125C mutant (UniProt P08659+P14340); assay type: biochemical
# T9 construct: pairs of primers of 1394F and 1440C for NS2B and 1476F and 1660C for NS3; made in house; host or cells: Escherichia coli Rosetta 2(DE3)
# N2CN3N A125W mutant = target: T10, N2CN3N A125W mutant (UniProt P08659+P14340); assay type: biochemical; details: A125W mutant 150 nM, NPGB 30 μM
# T10 construct: pairs of primers of 1394F and 1440C for NS2B and 1476F and 1660C for NS3; made in house; host or cells: Escherichia coli Rosetta 2(DE3)
# [23] = protein 2.5 μM, compound 4.8 μM
# T8 sequence (P08659 whole entry): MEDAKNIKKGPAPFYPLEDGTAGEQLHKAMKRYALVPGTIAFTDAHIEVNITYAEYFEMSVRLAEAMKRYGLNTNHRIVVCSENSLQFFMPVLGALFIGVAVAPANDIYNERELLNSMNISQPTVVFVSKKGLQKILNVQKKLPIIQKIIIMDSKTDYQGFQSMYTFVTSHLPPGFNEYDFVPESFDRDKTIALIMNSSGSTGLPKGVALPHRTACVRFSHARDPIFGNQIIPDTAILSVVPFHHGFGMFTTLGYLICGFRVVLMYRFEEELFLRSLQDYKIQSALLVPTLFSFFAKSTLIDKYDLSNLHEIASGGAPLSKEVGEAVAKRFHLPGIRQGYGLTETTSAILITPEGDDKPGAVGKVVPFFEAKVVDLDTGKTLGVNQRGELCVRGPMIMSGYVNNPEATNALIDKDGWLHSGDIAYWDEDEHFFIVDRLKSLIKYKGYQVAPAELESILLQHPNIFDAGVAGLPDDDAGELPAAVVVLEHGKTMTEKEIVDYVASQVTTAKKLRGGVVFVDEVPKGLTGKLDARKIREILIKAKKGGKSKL
# T6 sequence (P08659 whole entry, looked up, other chains not shown): as the sequence (P08659 whole entry) above
compound,measurement,setting,value
O=C1C=CC(=NNc2ccc([N+](=O)[O-])cc2Cl)C=C1C(=O)Nc1cccc(Cl)c1 [NSC135618],Tm (K74A),[1]; Fig 10D,42.19 °C
same,ΔTm (K74A),[1]; [23],2.48 °C
same,ZIKV RNA replication (qRT-PCR),ZIKV [2],drastically decreased ZIKV RNA replication
same,ZIKV protein expression (IFA),ZIKV [2],drastically decreased
same,inhibition of ZIKV (titer),ZIKV [2],effectively inhibited ZIKV in HPECs in a dose-dependent manner
same,EC50,"ZIKV [2]; Zika virus, Epithelial cell, read-out: EC50, ZIKV inhibition in HPECs",1 µM
same,CC50,in vitro,48.8 µM
same,Tm (I123A),[3]; Fig 10D,44.34 °C
same,ΔTm (I123A),[3]; [23],2.69 °C
same,Tm (N152A),[4]; Fig 10D,53.63 °C
same,ΔTm (N152A),[4]; [23],0.55 °C
same,EC50,WNV [5],1.27 µM
same,inhibition of protease activity of N152A mutant,[6],completely abolished the inhibition activity
same,increase of melting temperature (ΔTm) vs DMSO,unlinked DENV2 NS2B/NS3,4.8 °C
same,EC50,DENV2 [7],0.81 µM
same,EC50,YFV [8],0.28 µM
same,Tm (V154A),[9]; Fig 10D,52.09 °C
same,ΔTm (V154A),[9]; [23],1.75 °C
same,suppression of NPGB-induced SLC enhancement,[10]; NPGB 30 μM,abolish the SLC enhancement induced by NPGB to the background level
same,effect of compound alone on background SLC,[10],did not have significant effect on background SLC
same,"inhibition of NPGB-induced SLC enhancement, concentration series",[10]; NPGB 30 μM,significantly suppressed the SLC enhancement; also recorded: clearly inhibited the NPGB-induced SLC enhancement in a dose dependent manner
same,inhibition of protease activity of I123A mutant,[11],retains its inhibition activity
same,inhibition of protease activity of K74A mutant,[12],retains its inhibition activity
same,"EC50, YFV viral reduction",YFV [13],low micromolar range
same,"TI (therapeutic index, CC50/EC50)",YFV [13],174
same,DENV2 viral RNA copy numbers (qRT-PCR),DENV2 [14]; A549 cells,greatly reduced viral RNA copy numbers in a dose dependent manner
same,"EC50, DENV2 viral reduction","DENV2 [14]; A549 cells, MOI 0.1, 48 h",low micromolar range
same,DENV2 viral production (titer) relative to DMSO control,DENV2 [14]; A549 cells,significantly reduced
same,"TI (therapeutic index, CC50/EC50)","DENV2 [14]; DENV2, A549 cells",60
same,EC50,ZIKV [15],1 µM
same,"unprocessed viral polyprotein precursor (high MW band, Western blot)",[16]; 0.19 μM to 3 μM,accumulation of high molecular weight (MW) protein
same,"ZIKV NS3 expression (Western blot, normalized to GAPDH)","[16]; 0.75 μM to 6 μM, 48 h",significant inhibition of ZIKV NS3 expression
same,viral protein expression (Western blot),[16]; 6 μM,nearly completely suppressed viral protein expression
same,IC50,[17],0.38 µM
same,inhibition of protease activity of V154A mutant,[18],slightly reduced the inhibition activity
same,EC50,"ZIKV [19]; Zika virus, read-out: EC50, ZIKV inhibition in hNPCs",1.9 µM
same,ZIKV RNA replication (qRT-PCR),ZIKV [19],considerably reduce
same,ZIKV protein expression (IFA),ZIKV [19],considerably reduce
same,reduction of ZIKV titers,ZIKV [19],considerably reduce ZIKV titers
same,"TI (therapeutic index, CC50/EC50)",WNV [20],38
same,"EC50, WNV viral reduction","WNV [20]; A549 cells, MOI 0.1, 48 h",low micromolar range
same,"ZIKV viral protein expression (IFA, anti-E antibody 4G2)",ZIKV [21],greatly reduced viral protein expression
same,"EC50, ZIKV viral reduction","ZIKV [21]; MOI 0.1, 48 h",low micromolar range
same,ZIKV viral RNA copy numbers (qRT-PCR),ZIKV [21]; supernatant,greatly reduced
same,"TI (therapeutic index, CC50/EC50)",ZIKV [21]; ZIKV,49
O=C(Nc1ccc(Nc2ccncc2)cc1)c1ccc(Nc2ccnc3ccc([N+](=O)[O-])cc23)cc1 [NSC146771],CC50,in vitro,82 µM
same,EC50,DENV2 [7],> 100 µM
same,suppression of NPGB-induced SLC enhancement,[10]; NPGB 30 μM,abolish the SLC enhancement induced by NPGB to the background level
same,effect of compound alone on background SLC,[10],did not have significant effect on background SLC
same,"inhibition of NPGB-induced SLC enhancement, concentration series",[10]; NPGB 30 μM,did not inhibit the NPGB-induced SLC enhancement until very high concentration
same,DENV2 viral production (titer) relative to DMSO control,DENV2 [14]; A549 cells,no appreciable effect; also recorded: did not show any inhibition
Cn1ccc(=Nc2ccc(NC(=O)c3ccc(N=c4ccn(C)c5ccc([N+](=O)[O-])cc45)cc3)cc2)cc1 [NSC260594],CC50,in vitro,> 500 µM
same,EC50,DENV2 [7],13.5 µM
same,suppression of NPGB-induced SLC enhancement,[10]; NPGB 30 μM,abolish the SLC enhancement induced by NPGB to the background level
same,effect of compound alone on background SLC,[10],did not have significant effect on background SLC
same,"inhibition of NPGB-induced SLC enhancement, concentration series",[10]; NPGB 30 μM,did not inhibit the NPGB-induced SLC enhancement until very high concentration
same,DENV2 viral production (titer) relative to DMSO control,DENV2 [14]; A549 cells,significantly reduced
Nitrophenyl p-guanidinobenzoate [NPGB],effect on luciferase activity of full-length FLuc,[22],do not affect the luciferase activity; also recorded: did not have any effects
same,SLC enhancement compared to DMSO control,"[10]; WT N2CN3N 150 nM, NPGB 30 μM",4.2 fold
same,SLC enhancement compared to DMSO control,"N2CN3N A125C mutant; A125C mutant 150 nM, NPGB 30 μM",2.2 fold
same,SLC enhancement upon addition of active-site inhibitor,N2CN3N A125W mutant,SLC enhancement was not observed
"O=C(O)c1cc(SSc2ccc([N+](=O)[O-])c(C(=O)O)c2)ccc1[N+](=O)[O-] [DTNB, 5,5'-dithio-bis-[2-nitrobenzoic acid]]",effect on luciferase activity of full-length FLuc,[22],do not affect the luciferase activity; also recorded: did not significantly affect the luciferase activity
same,effect on NPGB-triggered SLC enhancement of WT N2CN3N,[10],significantly abolished the active site inhibitor NPGB-triggered SLC enhancement
same,effect on luciferase (baseline SLC) activity of WT N2CN3N,[10],did not significantly affect the luciferase activity
same,effect on baseline SLC signal of A125C mutant,N2CN3N A125C mutant; DTNB 30 μM alone,only slightly decreased the baseline SLC signal
same,effect on NPGB-triggered SLC enhancement of A125C mutant,N2CN3N A125C mutant; DTNB 30 μM with NPGB 30 μM,completely abolished the SLC enhancement
